The source of these data is ChEMBL document CHEMBL5331042, “Azole inhibitors of mushroom and human tyrosinases: Current advances and prospects of drug development for melanogenic dermatological disorders” (Eur J Med Chem, 2022).

Structures are written as SMILES.

For data set [1], the target named is T1, Mushroom tyrosinase (Agaricus bisporus, UniProt O42713+Q00024+C7FF04+C7FF05). Description: Binding affinity to mushroom tyrosinase assessed as inhibition constant using L-DOPA as substrate preincubated for 10 mins followed by substrate addition and measured after 20 mins.
Data set [2] deals with T1, Mushroom tyrosinase. The experiment in a line: Inhibition of mushroom tyrosinase using L-DOPA as substrate preincubated for 10 mins followed by substrate addition and measured after 20 mins.
Data set [3] has as its target T1, Mushroom tyrosinase. Description: Inhibition of mushroom tyrosinase incubated for 10 mins by spectrophotometric analysis.
For data set [4], the target named is T1, Mushroom tyrosinase. The experiment in a line: Binding affinity to mushroom tyrosinase assessed as inhibition constant incubated for 10 mins by spectrophotometric analysis.
For data set [5], the target named is T1, Mushroom tyrosinase. Description: Inhibition of mushroom tyrosinase using L-DOPA as substrate preincubated for 10 mins followed by substrate addition and measured after 20 mins by absorbance based analysis.
The nature of data set [6]: Cytotoxicity against mouse B16-F10 cells assessed as inhibition of cell growth measured after 48 hrs by MTT assay. In kind it is toxicity, cell-based. Background: Tetrazolium dyes change colour on reduction, which living cells bring about.
Data set [7] is described as follows: Cytotoxicity against mouse B16-F10 cells assessed as inhibition of cell growth at 8 uM measured after 24 hrs by MTT assay relative to control. The data set is classed as toxicity, cell-based.
In data set [8] the target is T1, Mushroom tyrosinase. Description: Inhibition of mushroom tyrosinase using L-DOPA as substrate preincubated for 20 mins followed by substrate addition by absorbance based analysis.
The target of data set [9] is T2, Tyrosinase (Homo sapiens, UniProt P14679).
T2 sequence (P14679 whole entry): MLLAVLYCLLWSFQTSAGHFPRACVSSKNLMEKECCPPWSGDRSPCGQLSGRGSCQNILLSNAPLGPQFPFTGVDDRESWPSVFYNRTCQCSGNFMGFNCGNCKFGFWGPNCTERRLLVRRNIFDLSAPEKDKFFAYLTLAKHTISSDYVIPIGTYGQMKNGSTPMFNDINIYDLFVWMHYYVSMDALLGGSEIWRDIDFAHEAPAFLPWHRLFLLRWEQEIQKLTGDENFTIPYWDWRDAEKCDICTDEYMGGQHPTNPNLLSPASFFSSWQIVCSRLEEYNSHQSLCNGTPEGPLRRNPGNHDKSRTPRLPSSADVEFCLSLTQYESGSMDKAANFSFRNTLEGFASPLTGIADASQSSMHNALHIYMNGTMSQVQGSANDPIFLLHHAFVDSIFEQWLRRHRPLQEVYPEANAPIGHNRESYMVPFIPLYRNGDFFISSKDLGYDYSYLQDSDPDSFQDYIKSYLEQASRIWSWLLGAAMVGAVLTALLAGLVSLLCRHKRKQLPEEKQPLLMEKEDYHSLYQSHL
The experiment in a line: Inhibition of human His-tagged tyrosinase CD expressed in HEK293 cells assessed as inhibition of melanin production using L-DOPA as substrate. In kind it is cell-based.

Data set [10] in a line: Cytotoxicity against mouse B16-F10 cells assessed as inhibition of cell growth upto 20 uM measured after 24 hrs by absorbance based assay relative to control. The data set is classed as toxicity.
In data set [11] the target is Mushroom tyrosinase (Agaricus bisporus) (UniProt O42713+Q00024+C7FF04+C7FF05). Description: Inhibition of mushroom tyrosinase transfected in mouse B16-F10 cells at 25 uM using L-tyrosine as substrate relative to control. The data set is classed as cell-based.
The target of data set [12] is T1, Mushroom tyrosinase. Description: Inhibition of mushroom tyrosinase.
The target of data set [13] is T2, Tyrosinase. Description: Inhibition of human tyrosinase using L-DOPA as substrate incubated for 10 to 20 mins by MBTH dye based assay.
For data set [14], the target named is T1, Mushroom tyrosinase. The experiment in a line: Binding affinity to mushroom tyrosinase assessed as inhibition constant using L-DOPA as substrate preincubated for 10 mins followed by substrate addition by absorbance based analysis.
In data set [15] the target is T1, Mushroom tyrosinase. Description: Inhibition of mushroom tyrosinase using L-DOPA as substrate preincubated for 10 mins followed by substrate addition by absorbance based analysis.
For data set [16], the target named is T1, Mushroom tyrosinase. The experiment in a line: Inhibition of mushroom tyrosinase using L-tyrosine as substrate preincubated for 20 mins followed by substrate addition by absorbance based analysis.

For orientation: Ki means the equilibrium dissociation constant of an inhibitor or competing ligand from its target. As usually defined, the IC50 is the concentration that inhibits the measured activity by half. On to `COc1ccccc1-n1c(SCC(=O)Nc2ccc(Br)cc2)nnc1-c1ccccc1`, for which, at Mushroom tyrosinase [1], the Ki amounted to 0.007 µM. Also, the IC50 at Mushroom tyrosinase [2] stood at 0.0048 µM.

Molecule `CCCCCn1nc(-c2ccccc2)n(CC(=O)NNC(=S)Nc2ccccc2C(F)(F)F)c1=O` showed an IC50 at Mushroom tyrosinase [3] of 5.62 µM. Further, the Ki on Mushroom tyrosinase [4] was 0.122 µM.

On to `O=C1C=C(Cn2cc(COc3ccc4ccccc4c3)nn2)C(=O)C=C1O`, for which the IC50 at Mushroom tyrosinase [5] came to 0.3 µM. Besides, the IC50 at 48 h in data set [6] turned out to be 67.5 µM.

In general, inhibition refers to the change of the read-out against control, counted positive when it falls. `NC(=S)N/N=C/c1ccc(OCc2cn(CC(=O)Nc3ccc(Cl)cc3)nn2)cc1`: the inhibition at 24 h, 8 µM in [7] was determined as 69.6%. The IC50 against Mushroom tyrosinase [8] was found to be 0.14 µM.

As for `CCCCc1ccc(O)cc1O` [RUCINOL], the IC50 at Tyrosinase [9] stood at 13.5 µM.

As to `CCCCCn1nc(-c2ccccc2)n(CC(=O)NNC(=O)Nc2ccccc2C(F)(F)F)c1=O`, the IC50 against Mushroom tyrosinase [3] turned out to be 0.00166 µM. On Mushroom tyrosinase [4], the Ki was found to be 0.012 µM.

On to `NC(=S)N/N=C/c1ccc(OCc2cn(CC(=O)Nc3cccc(Br)c3)nn2)cc1`, for which the inhibition at 24 h, 8 µM in [7] was ≤ 70%. In addition, the half-inhibitory concentration (IC50) at Mushroom tyrosinase [8] was found to be 0.21 µM.

Turning to `Oc1ccc(O)cc1` [HYDROQUINONE], the 50% inhibitory concentration (IC50) at Tyrosinase [9] was 15 µM.

With `O=C1/C(=C/c2ccccc2O)OC(=S)N1c1ccccc1`, the inhibition at 24 h, up to 20 µM in [10] was ~65%. This molecule also had an inhibition in [11] of 65%. This molecule displayed a half-inhibitory concentration (IC50) against Mushroom tyrosinase [12] of 11.18 µM.

Consider `O=C1OC(c2ccccc2Br)=NC(=S)C1c1nn[nH]n1` (centres undefined), for which the IC50 against Mushroom tyrosinase [5] stood at 0.037 µM. For the same molecule, the Ki on Mushroom tyrosinase [1] was 0.0003 µM.

`C[C@@H](O)CCc1ccc(O)cc1`: the IC50 at Tyrosinase [9] came to 1200 µM.

Regarding `CC(C)[C@@H]1NC(=O)[C@@H]2CCCN2C(=O)[C@H](Cc2ccc(O)cc2)n2cc(nn2)[C@@H]2CCCN2C1=O`, the IC50 against Mushroom tyrosinase [12] was 0.5 µM.

Consider `O=C1C=C(Cn2cc(COc3cccc4ccccc34)nn2)C(=O)C=C1O`, for which the IC50 on Mushroom tyrosinase [5] stood at 0.06 µM. For the same molecule, in [6], the IC50 at 48 h is 65 µM.

With `CC(C)C(=O)Nc1nc(-c2ccc(O)cc2O)cs1`, the 50% inhibitory concentration (IC50) worked out at 1.4 µM against Tyrosinase [13] and 0.9 µM on Tyrosinase [9].

Take `COc1cc(C2CC(c3cc4ccccc4oc3=O)=NN2c2nc(-c3ccc(Br)cc3)cs2)ccc1OCc1ccccc1` (centres undefined): the Ki at Mushroom tyrosinase [14] was determined as 0.0086 µM. The same molecule gave a half-inhibitory concentration (IC50) against Mushroom tyrosinase [15] of 0.00458 µM.

Molecule `CC(C)[C@H]1C(=O)N2CCC[C@H]2c2cn(nn2)[C@@H](Cc2ccc(O)cc2)C(=O)N2CCC[C@H]2c2cn1nn2` yielded an IC50 at Mushroom tyrosinase [12] of 1.6 µM.

As for `O=c1cc(CO)occ1O` [KOJIC ACID], in data set [7], the inhibition at 24 h, 8 µM turned out to be 94%.

On to `O=C1/C(=C/c2ccc(O)cc2O)OC(=S)N1c1ccccc1`, for which, in data set [10], the inhibition at 24 h, up to 20 µM was ~55%. This molecule came in with an inhibition in [11] of 55%. In addition, the IC50 on Mushroom tyrosinase [12] came out at 4.7 µM.

As for `COc1cc(/C=N/c2nnc(S)s2)ccc1O`, the Ki on Mushroom tyrosinase [14] was 0.038 µM. Further, the IC50 against Mushroom tyrosinase [15] was 0.036 µM.

Turning to `Oc1ccc(/C=N/c2nnc(S)s2)c(O)c1`, on Mushroom tyrosinase [14], the inhibition constant (Ki) is 0.075 µM. Further, the 50% inhibitory concentration (IC50) against Mushroom tyrosinase [15] worked out at 0.25 µM.

Turning to `NC(=S)N/N=C/c1ccc(OCc2cn(CC(=O)NCc3ccccc3)nn2)cc1`, the inhibition at 24 h, 8 µM in data set [7] worked out at 39.8%. The IC50 against Mushroom tyrosinase [16] worked out at 0.25 µM; against Mushroom tyrosinase [8] it was 0.17 µM.
